Results from publication PMC4239610, “A Peptide Derived from G0/G1 Switch Gene 2 Acts as Noncompetitive Inhibitor of Adipose Triglyceride Lipase” (The Journal of Biological Chemistry, 2014).
Each block holds one molecule with its values, some of them ahead of it.

What was measured:
[1] = tested on: mATGL; assay: TG hydrolase activity, COS-7 cell extracts containing mATGL, CGI-58 activated (Fig. 1B); assay type: biochemical, mouse; conditions: COS-7 cell extract with mATGL, hG0S2 variants as E. coli cell lysates (30 μg), [3H]triolein substrate, triplicates
Experimental: (§1) Protein concentrations were determined as described below.
Cells were harvested 48 h after transfection. […] Protein concentrations were determined as described below.
(§2) FIGURE 1. Minimal sequence requirements of human G0S2 for ATGL inhibition. A, graphical representation of full-length and shortened versions of hG0S2, those capable of inhibiting ATGL activity are illustrated in black. The largely hydrophobic sequence stretch from Val-28 to Met-42 is depicted in light gray. B–E, activity assays were performed in the presence of CGI-58 as indicated by an asterisk (ATGL*). G0S2 and variants thereof were expressed in E. coli and added as cell lysates. Overexpressed mATGL from E. coli lysates was used for all assays with the exception of the assay shown in B. B, inhibition of TG hydrolase activity of mATGL containing COS-7 cell extracts by WT and C-terminally truncated hG0S2 variants. C, inhibition of TG hydrolase activity of mATGL by WT and C-terminally truncated hG0S2 variants. D, inhibition of TG hydrolase activity of mATGL by WT hG0S2 and variants with N-terminal deletions. E, effect of different N- and C-terminal truncations in hG0S2 on mATGL activity. The fusion tag smt3 is shown as control.

[2] = tested on: mATGL; assay: TG hydrolase activity, E. coli expressed mATGL, CGI-58 activated, hG0S2 truncations (Fig. 1C-E); assay type: biochemical, mouse; conditions: mATGL E. coli extract (50 μg), 2.5 μg purified mCGI-58, 30 μg lysate of E. coli expressing hG0S2 variant, [3H]triolein, triplicates
Experimental: as §1, §2

[3] = tested on: ATGL; conditions: cited from earlier work
From the text: Extensive research on the physiological role of ATGL has identified complex regulatory mechanisms for its activity on the transcriptional and post-translational level ([12], [13]). Direct protein-protein interaction of ATGL with the protein comparative gene identification 58 (CGI-58) increases ATGL activity up to 20-fold ([14]). Inhibition of ATGL due to direct interaction with the small, 103-amino acid protein G0/G1 switch gene 2 (G0S2) was discovered in 2010 and confirmed using human and murine proteins ([15][–][21]). The highest G0S2 expression is found in adipose tissues, but it is also pr ... || Activation of ATGL by CGI-58 is considered as fasting response upon β-adrenergic stimulation and phosphorylation of PKA ([12]). Recent studies have strengthened the role of G0S2 as the so-called master regulator of basal and stimulated lipolysis ([27]). mRNA levels of G0S2 respond strongly to hormonal stimuli, yet the dose-dependent inhibition of ATGL by G0S2 itself is reported to be independent of phosphorylation events ([18], [20], [21], [28], [29]). Thus, regulation of the expression levels of G0S2, and consequently the protein concentration, resembles a potent mean to regulate lipid mobili ... || Next, we investigated the specificity of the peptide hGW2052. ATGL and HSL together account for more than 95% of intracellular TG hydrolase activity in white adipose tissue (WAT) ([48]). For both enzymes, small molecule inhibitors are available. […] WAT lysates of WT and Atgl-KO mice were tested for TG hydrolase activity in the presence of Atglistatin, Hi 76–0079, and hGW2052. Addition of the ATGL inhibitors hGW2052 or Atglistatin redu ... || (+ 3 further places)

[4] = tested on: TG hydrolase activity of WAT lysates from WT animals; assay: TG hydrolase activity of WAT lysates of overnight fasted WT mice; assay type: biochemical, mouse
Experimental: (§3) Adipose tissue samples from overnight fasted wild-type and Atgl-KO mice were washed in PBS (137 mM NaCl, 2.7 mM KCl, 10 mM Na2HPO4, 2 mM KH2PO4) containing 1 mM EDTA and homogenized on ice in sucrose solution (see above) using an Ultra Turrax (IKA, Staufen, Germany).
FIGURE 4.

[5] = tested on: WAT TG hydrolase activity derived from Atgl-KO mice; assay: TG hydrolase activity of WAT lysates of Atgl-KO mice; assay type: biochemical, mouse; conditions: overnight fasted, 1.4 μM hGW2052, 40 μM Atglistatin, Fig. 4A
Experimental: as §3
FIGURE 4.

[6] = cited from earlier work
From the text: Adipose triglyceride lipase (ATGL) hydrolyzes TGs into diacylglycerols and FAs and is required for efficient intracellular lipolysis ([7]). Global inactivation of ATGL activity leads to massive TG accumulation in all tissues, including the heart of Atgl knock-out mice ([8]). Accordingly, patients with ATGL deficiency suffer from cardiac and skeletal muscle myopathy and require heart transplants at a relatively young age ([9]). However, genetic and small molecule-mediated inactivation of ATGL is also associated with beneficial effects on plasma lipid parameters and insulin sensitivity; Atgl-KO ... || Genetic disruption of Atgl results in severe heart defects due to massive TG accumulation in cardiac muscle ([8], [55]). Thus, the application of a synthetic, competitive ATGL inhibitor, such as Atglistatin, as a therapeutic tool appears limited. […] Th ...

[7] = tested on: HSL; conditions: ref [10], [48], [49]; cited from earlier work
Experimental: Next, we investigated the specificity of the peptide hGW2052. ATGL and HSL together account for more than 95% of intracellular TG hydrolase activity in white adipose tissue (WAT) ([48]). For both enzymes, small molecule inhibitors are available. […] WAT lysates of WT and Atgl-KO mice were tested for TG hydrolase activity in the presence of Atglistatin, Hi 76–0079, and hGW2052. Addition of the ATGL inhibitors hGW2052 or Atglistatin redu ... || To evaluate the specificity of the inhibitory peptide for ATGL, we analyzed the effect of hGW2052 on the activities of phospholipases, intracellular lipases, and extracellular lipases. ATGL belongs to the patatin domain containing family of proteins (PNPLA). […] Although PNPLA family members show high sequence conservation within their common patatin domain, no effects on lysophospholipase activities of PNPLA6 or PNPLA7 could b ...

[8] = single administration to mice, ref [10]

Molecule: hG0S2 truncated at residue Leu-40: hG0S2 truncated at residue Leu-40 (C-terminal truncation) (METVQELIPLAKEMMAQKRKGKMVKLYVLGSVLALFGVVL; UniProt P27469 1-40, looked up, fragment)
inhibition of TG hydrolase activity (result in words) [1]: Inhibition was significantly reduced

Molecule: hG0S2 Leu-10–Ala-52: N- and C-terminally truncated hG0S2, Leu-10–Ala-52 (LAKEMMAQKRKGKMVKLYVLGSVLALFGVVLGLMETVCSPFTA; UniProt P27469 10-52, looked up, fragment)
inhibition of TG hydrolase activity (result in words) [2]: fully retained their activity to inhibit ATGL

Molecule: hG0S2 Lys-20–Met-43: N- and C-terminally truncated hG0S2, Lys-20–Met-43 (KGKMVKLYVLGSVLALFGVVLGLM; UniProt P27469 20-43, looked up, fragment)
inhibition of TG hydrolase activity (result in words) [2]: neither hG0S2 Tyr-27–Ala-52 nor hG0S2 Lys-20–Met-43 exhibited full inhibitory capacity | inhibition of TG hydrolase activity (result in words) ([2]; listed as Lys-20–Met-43): did not result in G0S2 variants that were able to inhibit ATGL efficiently

Molecule: CCCCCCCC/C=C\CCCCCCCC(=O)SCCNC(=O)CCNC(=O)[C@H](O)C(C)(C)COP(=O)(O)OP(=O)(O)OC[C@H]1O[C@@H](n2cnc3c(N)ncnc32)[C@H](O)[C@@H]1OP(=O)(O)O [oleoyl-CoA]
IC50 ([3]; ref [13]): 33 µM

Molecule: hG0S2_1–43: C-terminally truncated hG0S2 variant Met-1–Met-43 (METVQELIPLAKEMMAQKRKGKMVKLYVLGSVLALFGVVLGLM; UniProt P27469 1-43, looked up, fragment)
inhibition of TG hydrolase activity (result in words) [2]: still exerts the full inhibitory effect on ATGL | inhibition of TG hydrolase activity (result in words) ([2]; listed as Met-1–Met-43): fully able to inhibit ATGL

reduction of TG hydrolase activity of WAT lysates ([4]; 40 μM Atglistatin, Fig. 4A): 49%
Molecule: CN(C)C(=O)Nc1cccc(-c2ccc(N(C)C)cc2)c1 [Atglistatin]
inhibition of WAT TG hydrolase activity, Atgl-KO (result in words) [5]: Neither hGW2052 nor Atglistatin inhibited WAT TG hydrolase activity derived from Atgl-KO mice | IC50 for ATGL (in words) ([3]; Atglistatin elsewhere ref [10]): low micromolar range | dependence of ATGL inhibition on CGI-58 ([3]; ref [10], [13]): independent of the presence of CGI-58 | mode of ATGL inhibition ([3]; ref [10], [13]): inhibits ATGL in a competitive manner | specificity of inhibition (in words), ATGL ([3]; ref [10], [48], [49]): act as specific inhibitors for ATGL and HSL, respectively | plasma FA and TG concentrations ([6]; WT mice, ref [8], [10]): reduced plasma FA and TG concentrations | TG accumulation in tissues [6, 8]: TG accumulation in liver but not the heart | tissue accumulation of the inhibitor [6, 8]: accumulation of the inhibitor in liver and adipose tissues

Molecule: CN(C(=O)n1cncn1)c1ccccc1 [Hi 76-0079, N-methyl-phenyl carbamoyl triazole]
reduction of TG hydrolase activity of WAT lysates ([4]; 25 μM Hi 76-0079, Fig. 4A): 67% | specificity of inhibition (in words), HSL [7]: act as specific inhibitors for ATGL and HSL, respectively

Molecule: hG0S2 Gly-30–Ala-52: N- and C-terminally truncated hG0S2, Gly-30–Ala-52 (GSVLALFGVVLGLMETVCSPFTA; UniProt P27469 30-52, looked up, fragment)
inhibition of TG hydrolase activity (result in words) [2]: had lost all inhibitory activity
